Patent US6008215A, “Benzonaphthyridines as bronchial therapeutics” (Byk Gulden Lomberg Chemische Fabrik GmbH, priority 1996, dated 1999)
Where a name gives a salt, the structure may show the parent alone.

Tests used:
Type in all cases: biochemical
PDE4 = assay: Inhibition of PDE isoenzymes: PDE4 (cAMP-specific), cytosol of human polymorphonuclear leukocytes; conditions: PDE4, cytosol of human PMNL, cAMP as substrate, motapizone (1 μM) present
PDE3 = PDE3 (Homo sapiens, UniProt Q14432); assay: Inhibition of PDE isoenzymes: PDE3 (cGMP-inhibited), homogenates of human blood platelets; conditions: read-out: -log IC50, PDE3 (converted)
Chain of PDE3 (Q14432 whole entry): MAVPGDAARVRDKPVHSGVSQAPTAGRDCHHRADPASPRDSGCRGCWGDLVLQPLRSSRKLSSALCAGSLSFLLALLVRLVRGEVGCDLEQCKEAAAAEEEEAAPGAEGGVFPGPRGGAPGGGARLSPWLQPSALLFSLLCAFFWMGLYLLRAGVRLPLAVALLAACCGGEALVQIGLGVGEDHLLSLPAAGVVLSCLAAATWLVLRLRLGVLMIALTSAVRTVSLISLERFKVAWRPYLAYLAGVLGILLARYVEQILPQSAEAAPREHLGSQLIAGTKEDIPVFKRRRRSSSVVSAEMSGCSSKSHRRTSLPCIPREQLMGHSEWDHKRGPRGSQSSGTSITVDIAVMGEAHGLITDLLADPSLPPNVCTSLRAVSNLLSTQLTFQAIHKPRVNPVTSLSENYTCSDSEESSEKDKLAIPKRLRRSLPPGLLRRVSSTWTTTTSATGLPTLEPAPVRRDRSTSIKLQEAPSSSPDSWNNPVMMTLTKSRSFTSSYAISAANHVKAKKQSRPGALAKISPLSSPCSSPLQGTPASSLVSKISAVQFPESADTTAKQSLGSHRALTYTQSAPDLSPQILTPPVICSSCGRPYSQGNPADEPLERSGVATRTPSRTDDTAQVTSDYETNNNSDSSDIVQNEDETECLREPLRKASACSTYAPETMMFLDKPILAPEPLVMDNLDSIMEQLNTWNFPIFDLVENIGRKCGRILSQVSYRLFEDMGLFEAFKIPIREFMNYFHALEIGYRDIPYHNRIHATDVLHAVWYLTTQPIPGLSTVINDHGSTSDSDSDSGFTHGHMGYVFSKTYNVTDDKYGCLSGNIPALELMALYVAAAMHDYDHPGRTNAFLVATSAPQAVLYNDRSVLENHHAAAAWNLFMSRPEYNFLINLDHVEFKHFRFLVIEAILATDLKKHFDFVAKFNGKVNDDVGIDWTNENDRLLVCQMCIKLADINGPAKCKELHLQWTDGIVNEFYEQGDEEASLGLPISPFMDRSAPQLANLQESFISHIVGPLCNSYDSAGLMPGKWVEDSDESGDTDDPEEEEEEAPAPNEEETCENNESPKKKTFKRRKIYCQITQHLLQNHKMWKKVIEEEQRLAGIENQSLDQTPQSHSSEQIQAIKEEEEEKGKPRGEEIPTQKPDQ
Description: (§1) The PDE activity was determined according to Thompson et al. (1) with some modifications (2). The test samples contained 40 mM tris HCl (pH 7.4), 5 mM MgCl2, 0.5 μM cAMP or cGMP, [^3 H] cAMP or [^3 H]cGMP (about 50,000 cpm/sample), the PDE isoenzyme-specific additions described in greater detail below, the indicated concentrations of inhibitor and an aliquot of the enzyme solution in a total sample volume of 200 μl. […] After preincubation at 37° C. for 5 minutes, the reaction was started by addition of the substrate (cAMP or cGMP). The samples were incubated at 37° C. for a further 15 min. The reaction was terminated by addition of 50 μl of 0.2N HCl. After cooling on ice for 10 minutes and addition of 25 μg of 5'-nucleotidase (snake venom from Crotalus atrox), the mixture was again incubated at 37° C. for 10 min and the samples were then applied to QAE Sephadex A-25 columns. The columns were eluted with 2 ml of 30 mM ammonium formate (pH 6.0). The radioactivity of the eluate was measured and corrected by the corresponding blank values. The proportion of hydrolyzed nucleotide in no case exceeded 20% of the original substrate concentration.
PDE3 (cGMP-inhibited) and PDE5 (cGMP-specific) were investigated in homogenates of human blood platelets [Schudt et al. (4)] using cAMP or cGMP as a substrate.
(§2) The IC50 values were determined from the concentration-inhibition curves by nonlinear regression using the GraphPad InPlot™ program (GraphPad Software Inc., Philadelphia, U.S.A.).
In Table 1 below, the inhibitory concentrations determined according to Section A1 [inhibitory concentrations as -log IC50 (mol/l)] for the compounds according to the invention are indicated for various PDE isoenzymes. The numbers of the compounds correspond to the numbers of the examples.

PDE5 = biological target: T1, PDE5 (Homo sapiens, UniProt O76074); assay: Inhibition of PDE isoenzymes: PDE5 (cGMP-specific), homogenates of human blood platelets; conditions: read-out: -log IC50, PDE5 (converted)
T1 construct: were investigated in homogenates of human blood platelets; from tissue; host or cells: human blood platelets, homogenate
Description: as §1, with “The columns were eluted with 2 ml of 30 mM ammonium formate (pH 6.0).” left out, “The proportion of hydrolyzed nucleotide in no case exceeded 20% of the original substrate concentration.” left out
as §2
(§3) In Table 1 below, the inhibitory concentrations determined according to Section A1 [inhibitory concentrations as -log IC50 (mol/l)] for the compounds according to the invention are indicated for various PDE isoenzymes. […]

PDE2 = biological target: T2, PDE2 (Rattus norvegicus, UniProt Q01062); assay: Inhibition of PDE isoenzymes: PDE2 (cGMP-stimulated) from rat hearts; conditions: cGMP (5 μM), cAMP as substrate, read-out: -log IC50, PDE2 (converted)
T2 construct: from rat hearts was purified chromatographically; from tissue; host or cells: rat heart, chromatographically purified
T2 sequence (Q01062 1-928): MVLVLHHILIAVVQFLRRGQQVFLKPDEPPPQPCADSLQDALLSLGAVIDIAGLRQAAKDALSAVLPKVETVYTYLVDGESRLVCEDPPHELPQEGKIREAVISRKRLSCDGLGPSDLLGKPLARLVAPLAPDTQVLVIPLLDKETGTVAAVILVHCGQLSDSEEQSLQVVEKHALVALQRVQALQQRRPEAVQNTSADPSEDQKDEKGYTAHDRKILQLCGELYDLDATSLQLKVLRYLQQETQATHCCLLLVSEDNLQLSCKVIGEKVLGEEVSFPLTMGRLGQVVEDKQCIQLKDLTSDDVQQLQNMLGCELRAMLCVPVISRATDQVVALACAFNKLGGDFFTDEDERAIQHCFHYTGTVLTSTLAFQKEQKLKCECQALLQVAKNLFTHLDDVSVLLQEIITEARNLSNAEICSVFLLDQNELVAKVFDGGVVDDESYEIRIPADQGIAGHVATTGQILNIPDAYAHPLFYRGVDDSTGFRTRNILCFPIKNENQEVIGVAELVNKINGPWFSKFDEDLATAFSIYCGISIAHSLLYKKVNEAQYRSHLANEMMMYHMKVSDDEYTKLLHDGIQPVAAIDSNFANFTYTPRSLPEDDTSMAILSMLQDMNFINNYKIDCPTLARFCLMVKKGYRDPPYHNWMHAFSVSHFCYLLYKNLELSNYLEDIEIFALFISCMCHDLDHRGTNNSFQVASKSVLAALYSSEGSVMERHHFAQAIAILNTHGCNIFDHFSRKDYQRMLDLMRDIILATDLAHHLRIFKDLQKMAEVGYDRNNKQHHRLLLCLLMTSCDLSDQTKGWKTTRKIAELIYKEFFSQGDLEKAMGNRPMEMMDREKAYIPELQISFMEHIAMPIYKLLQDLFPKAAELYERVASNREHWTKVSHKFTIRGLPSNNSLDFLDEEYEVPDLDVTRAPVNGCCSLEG
Description: as §1, with “The columns were eluted with 2 ml of 30 mM ammonium formate (pH 6.0).” left out, “The proportion of hydrolyzed nucleotide in no case exceeded 20% of the original substrate concentration.” left out
as §2, §3

PDE1 = assay: Inhibition of PDE isoenzymes: PDE1 (Ca^2+/calmodulin-dependent) from bovine brain; conditions: Ca^2+ (1 mM), calmodulin (100 nM), cGMP as substrate

Compound	-log IC50, PDE4 (PDE4)	IC50 (PDE3) [nM]	IC50 (PDE5) [µM]	IC50 (PDE2) [µM]	-log IC50, PDE1 (PDE1)
COc1cc2c(cc1OC)[C@H]1CN(C)CC[C@H]1N=C2c1ccc(C(=O)OC(C)C)cc1 (single isomer, unassigned) [Compound 3, (-)-cis-8,9-Dimethoxy-6-(4-isoropoxycarbonylphenyl)-2-methyl-1,2,3,4,4a,10b-hexahydrobenzo[c][1,6]naphthyridine hydrochloride]	6.45	72.4			
CCOc1cc2c(cc1OCC)[C@@H]1CN(C)CC[C@@H]1N=C2c1ccc(C(=O)OC)cc1.Cl (single isomer, unassigned) [Compound 4, (-)-cis-8,9-Diethoxy-6-(4-methoxycarbonylphenyl)-2-methyl-1,2,3,4,4a,10b-hexahydrobenzo[c][1,6]naphthyridine hydrochloride]	7.54	214	3.55	15.8	< 4 -log(mol/l)
CCOc1cc2c(cc1OCC)[C@@H]1CN(C)CC[C@@H]1N=C2c1ccc(C(=O)OC(C)C)cc1.Cl (single isomer, unassigned) [Compound 5, (-)-cis-8,9-Diethoxy-6-(4-isopropoxycarbonylphenyl)-2-methyl-1,2,3,4,4a,10b-hexahydrobenzo[c][1,6]naphthyridine hydrochloride]	7.75	70.8			
CCOc1cc2c(cc1OCC)[C@H]1CN(C)CC[C@H]1N=C2c1ccc(C(=O)N(C(C)C)C(C)C)cc1 (single isomer, unassigned) [Compound 11, (-)-cis-8,9-Diethoxy-6-(4-diisopropylaminocarbonylphenyl-2-methyl-1,2,3,4,4a,10b-hexahydrobenzo[c][1,6]naphthyridine hydrochloride]	7.85	58.9			
CCOc1cc2c(cc1OCC)[C@H]1CN(C)CC[C@H]1N=C2c1ccc(C(=O)N(C(C)C)C2CCCCC2)cc1 (single isomer, unassigned) [Compound 16, (+)-cis-8,9-Diethoxy-6-(4-N-cyclohexyl-N-isopropylaminocarbonylphenyl)-2-methyl-1,2,3,4,4a,10b-hexahydrobenzo[c][1,6]naphthyridine hydrochloride]	7.96	186			
CCCCN(CCCC)C(=O)c1ccc(C2=N[C@H]3CCN(C)C[C@H]3c3cc(OCC)c(OCC)cc32)cc1.Cl (single isomer, unassigned) [Compound 17, (+)-cis-8,9-Diethoxy-6-(4-dibutylaminocarbonylphenyl)-2-methyl-1,2,3,4,4a,10b-hexahydrobenzo[c][1,6]naphthyridine hydrochloride]	7.94	417			
CCOc1cc2c(cc1OCC)[C@@H]1CN(C)CC[C@@H]1N=C2c1ccc(C(=O)N2CCCCCC2)cc1.Cl (single isomer, unassigned) [Compound 18, (-)-cis-8,9-Diethoxy-6-[4-(hexahydroazepin-1-yl-carbonyl)phenyl]-2-methyl-1,2,3,4,4a,10b-hexahydrobenzo[c][1,6]naphthyridine hydrochloride]	7.87	182			
CCOc1cc2c(cc1OC)C(c1ccc(C(=O)N(C(C)C)C(C)C)cc1)=N[C@H]1CCN(C)C[C@@H]21.Cl (single isomer, unassigned) [Compound 19, (-)-cis-9-Ethoxy-8-methoxy-6-(4-diisopropylaminocarbonylphenyl)-2-methyl-1,2,3,4,4a,10b-hexahydrobenzo[c][1,6]naphthyridine hydrochloride]	8.18	27.5			
CCOc1cc2c(cc1OC)C(c1ccc(C(=O)OC)cc1)=N[C@H]1CCN(C)C[C@@H]21.Cl (single isomer, unassigned) [Compound 21, (-)-cis-9-Ethoxy-8-methoxy-6-(4-methoxycarbonylphenyl)-2-methyl-1,2,3,4,4a,10b-hexahydrobenzo[c][1,6]naphthyridine hydrochloride]	7.67	457			
CCCCN(CCCC)C(=O)c1ccc(C2=N[C@H]3CCN(C)C[C@H]3c3cc(OCC)c(OC)cc32)cc1.Cl (single isomer, unassigned) [Compound 23, (-)-cis-9-Ethoxy-8-methoxy-6-(4-dibutylaminocarbonylphenyl)-2-methyl-1,2,3,4,4a,10b-hexahydrobenzo[c][1,6]naphthyridine hydrochloride]	8.56	229			
CCOc1cc2c(cc1OC)C(c1ccc(C(=O)N3CCCCCC3)cc1)=N[C@H]1CCN(C)C[C@@H]21 (single isomer, unassigned) [Compound 24, (-)-cis-9-Ethoxy-8-methoxy-6-[4-(hexahydroazepin-1-yl-carbonyl)phenyl]-2-methyl-1,2,3,4,4a,10b-hexahydrobenzo[c][1,6]naphthyridine]	8.51	22.9			
